Experimental data published in ChEMBL document CHEMBL3351867, “Sequence-specific DNA alkylation and transcriptional inhibition by long-chain hairpin pyrrole-imidazole polyamide-chlorambucil conjugates targeting CAG/CTG trinucleotide repeats” (Bioorg Med Chem, 2014).
Blank lines part the entries; values can stand above or below the compound they belong to. Calls of active or inactive are those of the source. The calls are words filed in the database; no cut-off is given here.

Legend:
[1] = Induction of DNA alkylation of 5'-Texas Red-labeled 214 bp DNA fragments with (5'-TTG(CTG)12-3' repeat sequence (unknown origin) at 2.5 to 20 nM after 18 hrs by high resolution gel electrophoresis
[2] = Induction of DNA alkylation of 5'-Texas Red-labeled 214 bp DNA fragments with (5'-(CAG)12CAA-3' repeat sequence (unknown origin) at 2.5 to 20 nM after 18 hrs by high resolution gel electrophoresis
[3] = Induction of DNA alkylation of DNA fragments with (CAG)12 repeat sequence (unknown origin) assessed as inhibition of T7 RNA polymerase-mediated transcription using T7 promoter primer and sp6 promoter primer at 10 to 30 nM after 18 hrs by […] staining based high resolution gel electrophoresis
[4] = Induction of DNA alkylation of DNA fragments with (CTG)12 repeat sequence (unknown origin) assessed as inhibition of T7 RNA polymerase-mediated transcription using T7 promoter primer and sp6 promoter primer at 10 to 30 nM after 18 hrs by […] staining based high resolution gel electrophoresis
[5] = Induction of DNA alkylation of 5'-Texas Red-labeled 214 bp DNA fragments with (CAG)12 repeat sequence (unknown origin) at 2.5 to 20 nM after 18 hrs by high resolution gel electrophoresis
[6] = Induction of DNA alkylation of 5'-Texas Red-labeled 214 bp DNA fragments with (CTG)12 repeat sequence (unknown origin) at 2.5 to 20 nM after 18 hrs by high resolution gel electrophoresis
[7] = Induction of DNA alkylation of 5'-Texas Red-labeled 214 bp DNA fragments with (CAG)12 repeat sequence (unknown origin) at 150 nmol after 18 hrs by high resolution gel electrophoresis
[8] = Binding affinity to biotinylated (5'-AGCAGCAGCA-3'/5'-TGCTGCTGCT-3') hairpin DNA (unknown origin) by SPR assay
[9] = Binding affinity to biotinylated (5'-AGCAGCAGCA-3'/5'-TGCTGCTGCT-3') hairpin DNA (unknown origin) assessed as […] of compound from 1:1 compound and DNA complex by SPR assay
[10] = Binding affinity to biotinylated (5'-AGCAGCAGCA-3'/5'-TGCTGCTGCT-3') hairpin DNA (unknown origin) assessed as […] of compound from 2:1 compound and DNA complex by SPR assay

- Activity [1]: Active
- Activity [2]: Active
- Activity [3]: Dose-dependent effect
- Activity [4]: Dose-dependent effect
SMILES: CC(=O)Nc1cn(C)c(C(=O)Nc2cc(C(=O)NCCC(=O)Nc3cn(C)c(C(=O)Nc4cc(C(=O)NCCC(=O)Nc5cn(C)c(C(=O)Nc6cc(C(=O)NCC[C@@H](N)C(=O)Nc7cn(C)c(C(=O)Nc8cc(C(=O)NCCC(=O)Nc9cn(C)c(C(=O)Nc%10cc(C(=O)NCCC(=O)Nc%11cn(C)c(C(=O)Nc%12cc(C(=O)NCCC(=O)NCCCN(C)CCCNC(=O)CCCc%13ccc(N(CCCl)CCCl)cc%13)n(C)c%12)n%11)n(C)c%10)n9)n(C)c8)n7)n(C)c6)n5)n(C)c4)n3)n(C)c2)n1

- Activity [5]: Active
- Activity [6]: Active
- Activity [1]: Active
- Activity [2]: Active
SMILES: CC(=O)Nc1cn(C)c(C(=O)Nc2cc(C(=O)NCCC(=O)Nc3cn(C)c(C(=O)Nc4cc(C(=O)NCCC(=O)Nc5cn(C)c(C(=O)Nc6cc(C(=O)NCCCC(=O)Nc7cn(C)c(C(=O)Nc8cc(C(=O)NCCC(=O)Nc9cn(C)c(C(=O)Nc%10cc(C(=O)NCCC(=O)Nc%11cn(C)c(C(=O)Nc%12cc(C(=O)NCCC(=O)NCCCN(C)CCCNC(=O)CCCc%13ccc(N(CCCl)CCCl)cc%13)n(C)c%12)n%11)n(C)c%10)n9)n(C)c8)n7)n(C)c6)n5)n(C)c4)n3)n(C)c2)n1

- Activity [5]: inactive
- Activity [6]: Active
- Activity [7]: Active
SMILES: CC(=O)Nc1cn(C)c(C(=O)Nc2cc(C(=O)NCCC(=O)Nc3cn(C)c(C(=O)Nc4cc(C(=O)NCCCC(=O)Nc5cn(C)c(C(=O)Nc6cc(C(=O)NCCC(=O)Nc7cn(C)c(C(=O)Nc8cc(C(=O)NCCC(=O)NCCCN(C)CCCNC(=O)CCCc9ccc(N(CCCl)CCCl)cc9)n(C)c8)n7)n(C)c6)n5)n(C)c4)n3)n(C)c2)n1

SMILES: CC(=O)Nc1cn(C)c(C(=O)Nc2cc(C(=O)NCCC(=O)Nc3cn(C)c(C(=O)Nc4cc(C(=O)NCCC(=O)NCCCN(C)CCCNC(=O)CCCc5ccc(N(CCCl)CCCl)cc5)n(C)c4)n3)n(C)c2)n1
- Activity [5]: inactive
- Activity [6]: inactive

- Kd [8]: 14 nM
SMILES: CC(=O)Nc1cn(C)c(C(=O)Nc2cc(C(=O)NCCC(=O)Nc3cn(C)c(C(=O)Nc4cc(C(=O)NCCCC(=O)Nc5cn(C)c(C(=O)Nc6cc(C(=O)NCCC(=O)Nc7cn(C)c(C(=O)Nc8cc(C(=O)NCCC(=O)NCCCN(C)CCCN)n(C)c8)n7)n(C)c6)n5)n(C)c4)n3)n(C)c2)n1

- Activity [3]: inactive
- Kd [8]: 11 nM
- Activity [4]: inactive
SMILES: CC(=O)Nc1cn(C)c(C(=O)Nc2cc(C(=O)NCCC(=O)Nc3cn(C)c(C(=O)Nc4cc(C(=O)NCCC(=O)Nc5cn(C)c(C(=O)Nc6cc(C(=O)NCC[C@@H](N)C(=O)Nc7cn(C)c(C(=O)Nc8cc(C(=O)NCCC(=O)Nc9cn(C)c(C(=O)Nc%10cc(C(=O)NCCC(=O)Nc%11cn(C)c(C(=O)Nc%12cc(C(=O)NCCC(=O)NCCCN(C)CCCN)n(C)c%12)n%11)n(C)c%10)n9)n(C)c8)n7)n(C)c6)n5)n(C)c4)n3)n(C)c2)n1

- Kd [8]: 53 nM
SMILES: CC(=O)Nc1cn(C)c(C(=O)Nc2cc(C(=O)NCCC(=O)Nc3cn(C)c(C(=O)Nc4cc(C(=O)NCCC(=O)Nc5cn(C)c(C(=O)Nc6cc(C(=O)NCCCC(=O)Nc7cn(C)c(C(=O)Nc8cc(C(=O)NCCC(=O)Nc9cn(C)c(C(=O)Nc%10cc(C(=O)NCCC(=O)Nc%11cn(C)c(C(=O)Nc%12cc(C(=O)NCCC(=O)NCCCN(C)CCCN)n(C)c%12)n%11)n(C)c%10)n9)n(C)c8)n7)n(C)c6)n5)n(C)c4)n3)n(C)c2)n1

- Kd [9]: 610 nM
- Kd [10]: 13 nM
SMILES: CC(=O)Nc1cn(C)c(C(=O)Nc2cc(C(=O)NCCC(=O)Nc3cn(C)c(C(=O)Nc4cc(C(=O)NCCC(=O)NCCCN(C)CCCN)n(C)c4)n3)n(C)c2)n1
